Source: PubChem BioAssay (NCI)
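Five compound concentrations were applied to cells in 96-well plates for 48 hours; endpoints were derived by simple linear interpolation of the resulting dose-response curve. Definition used: TGI = concentration required for complete inhibition of growth.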

Experiments:
Assay in all cases: NCI anticancer screen, dose series, 48 h
M14 melanoma = tested on: M14 melanoma
SK-OV-3 ovarian = tested on: SK-OV-3 ovarian
LOX IMVI melanoma = tested on: LOX IMVI melanoma
SR leukemia = tested on: SR leukemia
A549 NSCLC = tested on: A549 NSCLC
NCI-H226 lung = tested on: NCI-H226 lung
UACC-257 melanoma = tested on: UACC-257 melanoma
ACHN renal = tested on: ACHN renal
EKVX NSCLC = tested on: EKVX NSCLC
RXF 393 renal = tested on: RXF 393 renal
SNB-75 CNS = tested on: SNB-75 CNS
786-0 renal = tested on: 786-0 renal
K-562 leukemia = tested on: K-562 leukemia
UACC-62 melanoma = tested on: UACC-62 melanoma
A498 renal = tested on: A498 renal
RPMI-8226 leukemia = tested on: RPMI-8226 leukemia
DU-145 prostate = tested on: DU-145 prostate

## O/N=C/c1ncccc1C1OCCO1
M14 melanoma
  TGI: > 100 µM
SK-OV-3 ovarian
  TGI: > 100 µM
LOX IMVI melanoma
  TGI: > 100 µM
SR leukemia
  TGI: > 100 µM
A549 NSCLC
  TGI: > 100 µM
NCI-H226 lung
  TGI: > 100 µM
UACC-257 melanoma
  TGI: > 100 µM
ACHN renal
  TGI: > 100 µM
EKVX NSCLC
  TGI: > 100 µM
RXF 393 renal
  TGI: > 100 µM
SNB-75 CNS
  TGI: > 100 µM
786-0 renal
  TGI: > 100 µM
K-562 leukemia
  TGI: > 100 µM
UACC-62 melanoma
  TGI: > 100 µM

## O=c1c2ccccc2[nH]c2c(Cl)cc(Cl)c(NC3CCCCC3)c12
M14 melanoma
  TGI: 47.7 µM
SK-OV-3 ovarian
  TGI: > 100 µM
LOX IMVI melanoma
  TGI: > 100 µM
SR leukemia
  TGI: > 100 µM
A549 NSCLC
  TGI: > 100 µM
A498 renal
  TGI: 43.3 µM
NCI-H226 lung
  TGI: 44.4 µM
UACC-257 melanoma
  TGI: 69.5 µM
ACHN renal
  TGI: 37.7 µM
EKVX NSCLC
  TGI: 76.8 µM
SNB-75 CNS
  TGI: 83.6 µM
786-0 renal
  TGI: > 100 µM
K-562 leukemia
  TGI: > 100 µM
UACC-62 melanoma
  TGI: 36.6 µM
RPMI-8226 leukemia
  TGI: 85 µM

## CC1OC(OC2C(OC(=O)[C@]34CCC(C)(C)CC3C3=CCC5[C@@]6(C)C[C@H](O)[C@H](OC7OC(CO)C(O)C(O)C7N)[C@@](C)(C(=O)O)C6CC[C@@]5(C)C3(C)CC4)OCC(O)C2O)C(O)C(O)C1OC1OCC(O)C(O)C1O (stereo partly drawn)
SK-OV-3 ovarian
  TGI: > 100 µM
LOX IMVI melanoma
  TGI: > 100 µM
A549 NSCLC
  TGI: > 100 µM
A498 renal
  TGI: > 100 µM
NCI-H226 lung
  TGI: > 100 µM
UACC-257 melanoma
  TGI: > 100 µM
ACHN renal
  TGI: > 100 µM
EKVX NSCLC
  TGI: > 100 µM
RXF 393 renal
  TGI: > 100 µM
SNB-75 CNS
  TGI: > 100 µM
786-0 renal
  TGI: > 100 µM
K-562 leukemia
  TGI: > 100 µM
UACC-62 melanoma
  TGI: > 100 µM
RPMI-8226 leukemia
  TGI: > 100 µM

## Cc1cccc(C(C)C)c1NC(=O)/C(Cc1c([N+](=O)[O-])cccc1[N+](=O)[O-])=N/NC(=O)CC#N
M14 melanoma
  TGI: > 100 µM
SK-OV-3 ovarian
  TGI: > 100 µM
LOX IMVI melanoma
  TGI: > 100 µM
A549 NSCLC
  TGI: > 100 µM
A498 renal
  TGI: > 100 µM
NCI-H226 lung
  TGI: > 100 µM
ACHN renal
  TGI: > 100 µM
EKVX NSCLC
  TGI: > 100 µM
RXF 393 renal
  TGI: > 100 µM
SNB-75 CNS
  TGI: > 100 µM
786-0 renal
  TGI: > 100 µM
K-562 leukemia
  TGI: > 100 µM
UACC-62 melanoma
  TGI: > 100 µM

## NC(=S)N1N=C2c3ccccc3CC[C@@H]2[C@@H]1c1ccccc1
M14 melanoma
  TGI: 31.1 µM
SK-OV-3 ovarian
  TGI: 33.9 µM
LOX IMVI melanoma
  TGI: 20.1 µM
SR leukemia
  TGI: 12.6 µM
A549 NSCLC
  TGI: > 60.2 µM
A498 renal
  TGI: > 83.8 µM
NCI-H226 lung
  TGI: 45.6 µM
UACC-257 melanoma
  TGI: 56.3 µM
ACHN renal
  TGI: > 88.9 µM
EKVX NSCLC
  TGI: > 81.8 µM
RXF 393 renal
  TGI: 41.5 µM
SNB-75 CNS
  TGI: 35.6 µM
786-0 renal
  TGI: 50.5 µM
K-562 leukemia
  TGI: > 49.1 µM
UACC-62 melanoma
  TGI: 26.1 µM
RPMI-8226 leukemia
  TGI: 32.9 µM

## O=C(NC12CC3CC(CC(F)(C3)C1)C2)c1ccccc1
M14 melanoma
  TGI: > 100 µM
SK-OV-3 ovarian
  TGI: > 100 µM
LOX IMVI melanoma
  TGI: > 100 µM
A549 NSCLC
  TGI: > 100 µM
A498 renal
  TGI: > 100 µM
UACC-257 melanoma
  TGI: > 100 µM
ACHN renal
  TGI: > 100 µM
EKVX NSCLC
  TGI: > 100 µM
RXF 393 renal
  TGI: > 100 µM
SNB-75 CNS
  TGI: > 100 µM
786-0 renal
  TGI: > 100 µM
K-562 leukemia
  TGI: > 100 µM
UACC-62 melanoma
  TGI: > 100 µM
RPMI-8226 leukemia
  TGI: > 100 µM

## CCC(C)(C)C1CCC2c3c([nH]c4ccccc34)C3C(=O)N(c4ccc(OC)cc4)C(=O)C3C2C1 (stereo not drawn)
DU-145 prostate
  TGI: 28.9 µM
M14 melanoma
  TGI: > 100 µM
SK-OV-3 ovarian
  TGI: 77.6 µM
LOX IMVI melanoma
  TGI: 23.7 µM
SR leukemia
  TGI: 75.3 µM
A549 NSCLC
  TGI: 35.5 µM
NCI-H226 lung
  TGI: 37.3 µM
UACC-257 melanoma
  TGI: > 100 µM
ACHN renal
  TGI: 58.6 µM
EKVX NSCLC
  TGI: > 100 µM
RXF 393 renal
  TGI: > 100 µM
SNB-75 CNS
  TGI: 42.2 µM
786-0 renal
  TGI: 25.9 µM
K-562 leukemia
  TGI: > 100 µM
UACC-62 melanoma
  TGI: > 100 µM

## NC(=O)COC(=O)c1c(Cl)nc2sccn12
M14 melanoma
  TGI: > 100 µM
SK-OV-3 ovarian
  TGI: > 100 µM
LOX IMVI melanoma
  TGI: > 100 µM
SR leukemia
  TGI: 85.4 µM
A549 NSCLC
  TGI: > 100 µM
A498 renal
  TGI: > 100 µM
NCI-H226 lung
  TGI: > 100 µM
UACC-257 melanoma
  TGI: > 100 µM
ACHN renal
  TGI: > 100 µM
EKVX NSCLC
  TGI: > 100 µM
SNB-75 CNS
  TGI: > 100 µM
786-0 renal
  TGI: 36 µM
K-562 leukemia
  TGI: > 100 µM
UACC-62 melanoma
  TGI: > 100 µM
RPMI-8226 leukemia
  TGI: > 66.4 µM

## O=C(CCN(C(=O)O)S(=O)(=O)c1ccc(NC(=O)c2ccccc2)cc1)NC1CCCCC1
M14 melanoma
  TGI: > 100 µM
SK-OV-3 ovarian
  TGI: > 100 µM
LOX IMVI melanoma
  TGI: > 100 µM
SR leukemia
  TGI: > 100 µM
A549 NSCLC
  TGI: > 100 µM
A498 renal
  TGI: > 100 µM
NCI-H226 lung
  TGI: > 100 µM
UACC-257 melanoma
  TGI: > 100 µM
ACHN renal
  TGI: > 100 µM
EKVX NSCLC
  TGI: > 100 µM
SNB-75 CNS
  TGI: > 100 µM
786-0 renal
  TGI: 31.7 µM
K-562 leukemia
  TGI: > 100 µM
UACC-62 melanoma
  TGI: > 100 µM
RPMI-8226 leukemia
  TGI: 41.8 µM

## COc1ccc2c(c1)C(=O)Cc1ccccc1CC2
M14 melanoma
  TGI: > 100 µM
SK-OV-3 ovarian
  TGI: > 100 µM
LOX IMVI melanoma
  TGI: > 100 µM
SR leukemia
  TGI: > 100 µM
A549 NSCLC
  TGI: > 100 µM
A498 renal
  TGI: > 100 µM
NCI-H226 lung
  TGI: > 100 µM
UACC-257 melanoma
  TGI: > 100 µM
ACHN renal
  TGI: > 100 µM
EKVX NSCLC
  TGI: > 100 µM
RXF 393 renal
  TGI: > 100 µM
SNB-75 CNS
  TGI: > 100 µM
786-0 renal
  TGI: > 100 µM
K-562 leukemia
  TGI: > 100 µM
UACC-62 melanoma
  TGI: > 100 µM
RPMI-8226 leukemia
  TGI: > 100 µM

## O=C(O)CCCn1nnc2c(=O)[nH][nH]c(=O)c21
DU-145 prostate
  TGI: > 100 µM
M14 melanoma
  TGI: > 100 µM
LOX IMVI melanoma
  TGI: > 100 µM
SR leukemia
  TGI: > 100 µM
A549 NSCLC
  TGI: > 100 µM
UACC-257 melanoma
  TGI: > 100 µM
ACHN renal
  TGI: > 100 µM
EKVX NSCLC
  TGI: > 100 µM
786-0 renal
  TGI: > 100 µM
K-562 leukemia
  TGI: > 100 µM
RPMI-8226 leukemia
  TGI: > 100 µM

## O=C(O)C1CCCN(CCc2c[nH]c3ccccc23)C1 (stereo not drawn)
DU-145 prostate
  TGI: > 100 µM
M14 melanoma
  TGI: > 100 µM
SK-OV-3 ovarian
  TGI: > 100 µM
LOX IMVI melanoma
  TGI: > 100 µM
A549 NSCLC
  TGI: > 100 µM
A498 renal
  TGI: > 100 µM
NCI-H226 lung
  TGI: > 100 µM
UACC-257 melanoma
  TGI: > 100 µM
ACHN renal
  TGI: > 100 µM
EKVX NSCLC
  TGI: > 100 µM
RXF 393 renal
  TGI: > 100 µM
SNB-75 CNS
  TGI: > 100 µM
786-0 renal
  TGI: > 100 µM
K-562 leukemia
  TGI: > 100 µM
UACC-62 melanoma
  TGI: > 100 µM
RPMI-8226 leukemia
  TGI: > 100 µM

## CCOC(=O)/C(=C\c1ccccc1)C(=O)O
M14 melanoma
  TGI: > 100 µM
SK-OV-3 ovarian
  TGI: > 100 µM
LOX IMVI melanoma
  TGI: > 100 µM
SR leukemia
  TGI: > 100 µM
A549 NSCLC
  TGI: > 100 µM
A498 renal
  TGI: > 100 µM
NCI-H226 lung
  TGI: > 100 µM
UACC-257 melanoma
  TGI: > 100 µM
ACHN renal
  TGI: > 100 µM
EKVX NSCLC
  TGI: > 100 µM
786-0 renal
  TGI: > 100 µM
K-562 leukemia
  TGI: > 100 µM
UACC-62 melanoma
  TGI: > 100 µM
RPMI-8226 leukemia
  TGI: > 100 µM
